Experimental data as given in US20250197641A1, “OPTICAL ABSORBENT” (priority 2023, published 2025).

Key:
Assay type in all cases: physicochemical
[1] = Solubility of the absorbent in methylene chloride; settings: room temperature (about 25° C.)
Experimental: The solubility of the absorbent was evaluated. Solubility was determined based on the following criteria by evaluating the solubility of the absorbent in the solvent (MC, Methylene Chloride) at room temperature (about 25° C.).

[2] = Absorption maximum measurement; settings: chloroform, about 10^-5 M
Experimental: The maximum absorption was evaluated by a conventional method. Specifically, the sample was dissolved in chloroform solvent at a concentration of about 10^−5 M and then evaluated using measuring equipment (Agilent, Varian Cary 4000).

[3] = Pyrolysis temperature (Td 5%) analysis by TGA; settings: 25-800° C., 10° C./min, N2
Experimental: The Td 5% is a value obtained through TGA (Thermogravimetric Analysis) analysis. It is the value (Td 5%) at a weight loss of 5% confirmed under the conditions of a temperature range of 25° C. to 800° C., a temperature increase rate of 10° C./min, and a nitrogen (N2) atmosphere of 60 cm^3/min.
Thermogravimetric Analysis (TGA) of the chemical compound was performed by using Scinco's TGA N-1000 equipment. The analysis was performed by using approximately 3 mg of sample (chemical compound) and the analysis was conducted under conditions of a temperature range of 25° C. to 800° C., a temperature increase rate of 10° C./min, and nitrogen (N2) atmosphere of 60 cm^3/min. The value at […] (Td 5%) was used as the Td decomposition temperature.

[4] = Absorption spectra of absorption membrane before and after high temperature/high humidity evaluation (Test Example 2); settings: 85% relative humidity, 120 hours; for ΔA = 100×(Af−Ai)/Ai / Δλ = 100×(λf−λi)λi: 85° C.; for Af, transmittance at the absorption maximum wavelength / λf, absorption maximum wavelength: absorption membrane after 85° C.; for Ai, transmittance at the absorption maximum wavelength / λi, absorption maximum wavelength: absorption membrane before 85° C.
Excerpt: FIGS. 4 to 6 are the absorption spectra of the absorption membranes prepared in Test Example 1 using the absorbents of Embodiments 1 to 3, respectively. FIGS. 7 to 9 are the absorption spectrum of the absorption membrane prepared in Test Example using the absorbents of Comparative Examples 1 to 3, respectively. In the FIGS., the spectra indicated before reliability is the result immediately after preparing the absorption membrane, and the spectra indicated after reliability is the result after high temperature/high humidity evaluation was performed on the absorption membrane. The high temperature/high humidity evaluation is an evaluation where the absorption membrane is maintained at a temperature of 85° C. under a relative humidity of 85% for 120 hours. In Tables 4 and 5, Af is the transmittance at the absorption maximum wavelength of the absorption membrane maintained at 85° C. under 85% relative humidity for 120 hours and λf is the absorption maximum wavelength for after case. Ai is the transmittance at the absorption maximum wavelength of the absorption membrane before being maintained at 85° C. under 85% relative humidity for 120 hours and λi is the absorption maximum wavelength for before case. In Tables 4 and 5, ΔA is a value calculated as 100×(Af−Ai)/Ai, and Δλ is a value calculated as 100×(λf−λi)λi.

[5] = Transmittance of absorption membrane before and after reliability evaluation (Test Example 1); settings: for 425~465 nm Tave, Δ / 425~465 nm Tmin, Δ / 466~480 nm Tave, Δ / 466~480 nm Tmin, Δ / 480~560 nm Tave, Δ / λmax Tmax (transmittance at the absorption maximum), Δ: change before/after 85° C.; for 425~465 nm Tave, Δ / 425~465 nm Tmin, Δ / 466~480 nm Tave, Δ / 466~480 nm Tmin, Δ / 480~560 nm Tave, Δ / λmax Tmax (transmittance at the absorption maximum), Δ / 425~465 nm Tave, A / 425~465 nm Tmin, A / 466~480 nm Tave, A / 466~480 nm Tmin, A / 480~560 nm Tave, A: 85% RH, 120 hours; for 425~465 nm Tave, B / 425~465 nm Tmin, B / 466~480 nm Tave, B / 466~480 nm Tmin, B / 480~560 nm Tave, B: silicone resin membrane about 6 μm, before reliability evaluation; for 425~465 nm Tave, A / 425~465 nm Tmin, A / 466~480 nm Tave, A / 466~480 nm Tmin, A / 480~560 nm Tave, A: silicone resin membrane, after 85° C.
Experimental: The transmittance spectrum was measured using a spectrophotometer (Manufacturer: Perkinelmer, Product Name: Lambda 750 Spectrophotometer) on a specimen obtained by cutting the measurement object (e.g., an absorption membrane) so that the width and height were 10 mm and 10 mm, respectively. The transmittance spectrum was measured for each wavelength according to the equipment manual. The specimen was placed on a straight line between a measuring beam of the spectrophotometer and a detector and the transmittance spectrum was confirmed by setting the incident angle of the measuring beam to 0°. The incident angle of 0° is a direction substantially parallel to the surface normal direction of the specimen. The average transmittance within a certain wavelength range in the transmittance spectrum is the result of measuring the transmittance at each wavelength while increasing the wavelength by 1 nm starting from the shortest wavelength in the wavelength range, and then calculating the arithmetic average of the measured transmittances. The maximum transmittance is the maximum transmittance among the transmittances measured while increasing the wavelength by 1 nm and the minimum transmittance is the minimum transmittance among the transmittances measured while increasing the wavelength by 1 nm. For example, the average transmittance within the wavelength range of 350 nm to 360 nm is the arithmetic mean of the transmittance measured at the wavelength of 350 nm, 351 nm, 352 nm, 353 nm, 354 nm, 355 nm, 356 nm, 357 nm, 358 nm, 359 nm, and 360 nm. The maximum transmittance within the wavelength range of 350 nm to 360 nm is the highest transmittance measured at wavelengths of 350 nm, 351 nm, 352 nm, 353 nm, 354 nm, 355 nm, 356 nm, 357 nm, 358 nm, 359 nm and 360 nm and the minimum transmittance within the wavelength range of 350 nm to 360 nm is the lowest transmittance among the transmittances measured at wavelengths of 350 nm, 351 nm, 352 nm, 353 nm, 354 nm, 355 nm, 356 nm, 357 nm, 358 nm, 359 nm, and 360 nm.
A coating solution was prepared by mixing silicone resin (Dow Chemical, RSN-0217), absorbent, and solvent (cyclohexanone) as resin components. The mixing ratio of the resin component, absorbent, and solvent was set to be 69.3:0.99:29.7 in weight ratio (resin:absorbent:solvent).
The coating solution was coated on a transparent substrate (a glass substrate manufactured by SCHOTT) and maintained at 140° C. for about 2 hours to form an absorption membrane with a thickness of about 6 μm.
Tables 2 and 3 below summarize the transmittance of the absorption membrane before and after reliability evaluation in the ultraviolet and near-infrared regions. The reliability evaluation is an evaluation of maintaining the absorption membrane at 85° C. and under 85% relative humidity condition for 120 hours. In Table 2, B refers to the result before performing the reliability evaluation and A refers to the result after performing the reliability evaluation. Additionally, in Table 2, λmax means the transmittance at the absorption maximum.
In Tables 2 and 3, Δ is the rate of change (%) of each characteristic before and after the reliability evaluation, calculated as 100×[…]/B, where […], B is the value indicated by B in Table 2. In Table 2, Tmax refers to the highest transmittance within the corresponding wavelength region, Tave refers to the average transmittance within the corresponding wavelength region, and Tmin refers to the minimum transmittance within the corresponding wavelength region.

SMILES | Maximum Absorption Wavelength [2] [nm] | Td 5% [3] [°C] | ΔA = 100×(Af−Ai)/Ai [4] [%] | Δλ = 100×(λf−λi)λi [4] [%] | Af, transmittance at the absorption maximum wavelength [4] [%] | λf, absorption maximum wavelength [4] [nm] | Ai, transmittance at the absorption maximum wavelength [4] [%] | λi, absorption maximum wavelength [4] [nm] | 425~465 nm Tave, Δ [5] [%] | 425~465 nm Tmin, Δ [5] [%] | 466~480 nm Tave, Δ [5] [%] | 466~480 nm Tmin, Δ [5] [%] | 480~560 nm Tave, Δ [5] [%] | λmax Tmax (transmittance at the absorption maximum), Δ [5] [%] | 425~465 nm Tave, B [5] [%] | 425~465 nm Tmin, B [5] [%] | 466~480 nm Tave, B [5] [%] | 466~480 nm Tmin, B [5] [%] | 480~560 nm Tave, B [5] [%] | 425~465 nm Tave, A [5] [%] | further results
CCCCN1/C(=C\C=C2/CCC(/C=C/C3=[N+](CCCC)c4ccccc4C3(C)C)=C2Cl)C(C)(C)c2ccccc21 [Comparative Example 3] | 815 | 186 | 52.6 | −12 | 33.0 | 818 | 21.6 | 819 | −0.2 | 0 | −0.9 | −0.6 | −1.3 | 11.4 | 87.3 | 86.5 | 88.9 | 88 | 90.4 | 87 | Solubility [1]: A (When solubility is 1 mass % or more); 425~465 nm Tmin, A [5]: 86.6%; 466~480 nm Tave, A [5]: 88%; 466~480 nm Tmin, A [5]: 87.5%; 480~560 nm Tave, A [5]: 89.2%
CCCCN1\C(=C/C=C/C=C/C=C/C2=[N+](CCCC)c3ccc4ccccc4c3C2(C)C)C(C)(C)c2c1ccc1ccccc21 [Comparative Example 2] | 801 | 211 | 27.1 | 13 | 59.8 | 785 | 47.1 | 784 | 0 | −0.2 | 0.1 | −0.1 | −0.3 | 12.8 | 89.6 | 88.9 | 90.2 | 89.8 | 91.2 | 89.6 | Solubility [1]: A (When solubility is 1 mass % or more); 425~465 nm Tmin, A [5]: 88.7%; 466~480 nm Tave, A [5]: 90.2%; 466~480 nm Tmin, A [5]: 89.7%; 480~560 nm Tave, A [5]: 90.9%
CC1(C)C(/C=C/C2=C(Cl)C(=C/C=C3\N(C[Si](C)(C)C)c4ccccc4C3(C)C)/CC2)=[N+](C[Si](C)(C)C)c2ccccc21 [Embodiment 3] | 817 | 216 | 6.7 | 0 | 12.3 | 823 | 11.5 | 82. | 0.1 | 0.1 | 0.1 | 0.1 | 0. | 0.8 | 87.8 | 86.8 | 89.4 | 88.1 | 91 | 87.9 | 425~465 nm Tmin, A [5]: 87%; 466~480 nm Tave, A [5]: 89.5%; 466~480 nm Tmin, A [5]: 88.2%; 480~560 nm Tave, A [5]: 91%
CC1(C)C(/C=C/C=C/C=C/C=C2\N(C[Si](C)(C)C)c3ccc4ccccc4c3C2(C)C)=[N+](C[Si](C)(C)C)c2ccc3ccccc3c21 [Embodiment 2] | 803 | 230 | 4.2 | 0 | 34.9 | 790 | 33.5 | 790 | 0.1 | 0.1 | 0 | 0.1 | 0 | 1.4 | 89.5 | 88.6 | 90.3 | 89.8 | 91.3 | 89.5 | 425~465 nm Tmin, A [5]: 88.7%; 466~480 nm Tave, A [5]: 90.3%; 466~480 nm Tmin, A [5]: 89.8%; 480~560 nm Tave, A [5]: 91.3%
CC1(C)C(/C=C/C=C/C=C/C=C2\N(C[Si](C)(C)C)c3ccccc3C2(C)C)=[N+](C[Si](C)(C)C)c2ccccc21 [Embodiment 1] | 763 | 231 | 6.6 | 0 | 12.3 | 758 | 11.5 | 758 | 0 | 0.1 | 0 | 0 | 0 | 0.8 | 89.7 | 87.9 | 91.1 | 90.7 | 91.4 | 89.8 | 425~465 nm Tmin, A [5]: 88%; 466~480 nm Tave, A [5]: 91.1%; 466~480 nm Tmin, A [5]: 90.7%; 480~560 nm Tave, A [5]: 91.4%
